Measured values reported in patent publication US9675606B2, “2-amino-3-(imidazol-2-yl)-pyridin-4-one derivatives and their use as VEGF receptor kinase inhibitors” (SANOFI, priority 2011, dated 2017).

Tests used:
VEGFR-3 [1] = molecular target: T1, VEGFR-3 (Homo sapiens, UniProt P35916); test: Effect of compounds on VEGFR-3 auto-phosphorylation in HEK cells (ELISA); assay type: cell-based; conditions: autophosphorylation of VEGFR-3-Flag overexpressed in HEK293T cells, 1 h incubation with compound
T1 construct: expressed in transfected cells; host or cells: HEK293T cells, transient transfection with Fugene-6
Experimental: Effect of Compounds on VEGFR-3 Auto-Phosphorylation in HEK Cells
The effects of compounds in blocking VEGFR-3 autophosphorylation were quatified by ELISA after Overexpression of VEGFR-3 in HEK cells. HEK293T cells were maintained in MEM supplemented with 10% foetal calf serum (FCS) and glutamine. The day before transfection, […] were seeded on 48 wells plates and transfection was done using Fugene-6 (Roche, Basel). Fugene-6 (18 μL) was preincubated for 5 min with 282 μl of optimem. Then 3 μg DNA corresponding VFGR-3-Flag was added and left at room temperature during 10 min before distributing 200 μl on HEK cells. After 24 h, the medium was removed and replaced by a new one without serum and incubated for 1 h with different concentrations (ranging from 3 to 1000 nM) of each compound. After additional 30 min incubation with Orthovanadate (0.4 mM), cells were washed with cold PBS supplemented by orthovanadate and then lysed with 300 μl of RIPA buffer. Lysates were then centrifuged during 10 min at 10000 g. Supernatants (75 μl) were distributed in duplicate on 96 well plate precoated with the anti-Flag and left during 1 hour at room temperature. After 3 washes with TBS buffer containing 0.5% tween 20, the anti-phospho-tyrosine conjugated to the HRP was added and incubated for 1 hour at room temperature. Wells were then washed 3 times with TBS buffer containing tween 20 (0.5%) and MgCl2 (2 mM). The reaction was stopped with 50 μl of H2SO4 (2 N) and the signal was read at Envision at 485 and 530.
The concentration-response curves were analyzed with internal software Biost@t-SPEED v2.0 using the 4-parameter logistic model according to Ratkovsky and Reedy (Ratkovsky D A., Reedy T J. Choosing near-linear parameters in the four parameters logistic model radioligands and related assays. Biometrics 1986 September 42(3):575-82.)

VEGFR-3 [2] = molecular target: T1, VEGFR-3; test: Ex vivo assay: VEGFR-3 autophosphorylation in HEK cells incubated with plasma of mice dosed p.o.; parameters: species or system male Balb/c mice; conditions: HEK293, mouse; 6 h after single oral administration of 30 mg/kg to male Balb/c mice; transfected HEK cells incubated with plasma (10%); read-out: Ex vivo inhibition (%) At the time
Experimental: Protocol for administration of the products to the mice:
The products are prepared in a mortar with 0.5% Tween 80 and 0.6% methylcellulose qs final volume. The suspensions are administered by gavage (10 ml/kg) to male Balb/c mice 8 to 15 weeks old. Three hours or 6 hours after single oral administrations of 30 mg/kg, animals were anaesthetized with pentobarbital and blood samples (400 μL) were collected from cava vein and transferred into glass tubes containing lithium heparin. After centrifugation (1500-2000 g for 10 minutes), plasma samples were frozen at a temperature close to −20° C. until analysis.
In order to detect the ex vivo activity of the products in the plasmas, we have used the autophosphorylation assay in HEK cells described earlier. For this purpose, transfected cells were incubated with plasma (10%) instead of compounds. Results are expressed as percent of inhibition of VEGFR-3 autophosphorylation in comparison to untreated cells (maximum autophosphorylation) and to untransfected cells (background).
Results are expressed as a percentage of inhibition of VEGFR-3 auto-phosphorylation of in HEK cells, in presence of a plasma sample collected (at a time), after per os (p.o.) administration of compounds. In order to evaluate the increase of this activity for compounds of the invention, a comparison with compounds of the prior art (WO 2009/007535) and subjected to the same measurement is made in table 3.

T1 sequence (P35916 25-1363, species assumed): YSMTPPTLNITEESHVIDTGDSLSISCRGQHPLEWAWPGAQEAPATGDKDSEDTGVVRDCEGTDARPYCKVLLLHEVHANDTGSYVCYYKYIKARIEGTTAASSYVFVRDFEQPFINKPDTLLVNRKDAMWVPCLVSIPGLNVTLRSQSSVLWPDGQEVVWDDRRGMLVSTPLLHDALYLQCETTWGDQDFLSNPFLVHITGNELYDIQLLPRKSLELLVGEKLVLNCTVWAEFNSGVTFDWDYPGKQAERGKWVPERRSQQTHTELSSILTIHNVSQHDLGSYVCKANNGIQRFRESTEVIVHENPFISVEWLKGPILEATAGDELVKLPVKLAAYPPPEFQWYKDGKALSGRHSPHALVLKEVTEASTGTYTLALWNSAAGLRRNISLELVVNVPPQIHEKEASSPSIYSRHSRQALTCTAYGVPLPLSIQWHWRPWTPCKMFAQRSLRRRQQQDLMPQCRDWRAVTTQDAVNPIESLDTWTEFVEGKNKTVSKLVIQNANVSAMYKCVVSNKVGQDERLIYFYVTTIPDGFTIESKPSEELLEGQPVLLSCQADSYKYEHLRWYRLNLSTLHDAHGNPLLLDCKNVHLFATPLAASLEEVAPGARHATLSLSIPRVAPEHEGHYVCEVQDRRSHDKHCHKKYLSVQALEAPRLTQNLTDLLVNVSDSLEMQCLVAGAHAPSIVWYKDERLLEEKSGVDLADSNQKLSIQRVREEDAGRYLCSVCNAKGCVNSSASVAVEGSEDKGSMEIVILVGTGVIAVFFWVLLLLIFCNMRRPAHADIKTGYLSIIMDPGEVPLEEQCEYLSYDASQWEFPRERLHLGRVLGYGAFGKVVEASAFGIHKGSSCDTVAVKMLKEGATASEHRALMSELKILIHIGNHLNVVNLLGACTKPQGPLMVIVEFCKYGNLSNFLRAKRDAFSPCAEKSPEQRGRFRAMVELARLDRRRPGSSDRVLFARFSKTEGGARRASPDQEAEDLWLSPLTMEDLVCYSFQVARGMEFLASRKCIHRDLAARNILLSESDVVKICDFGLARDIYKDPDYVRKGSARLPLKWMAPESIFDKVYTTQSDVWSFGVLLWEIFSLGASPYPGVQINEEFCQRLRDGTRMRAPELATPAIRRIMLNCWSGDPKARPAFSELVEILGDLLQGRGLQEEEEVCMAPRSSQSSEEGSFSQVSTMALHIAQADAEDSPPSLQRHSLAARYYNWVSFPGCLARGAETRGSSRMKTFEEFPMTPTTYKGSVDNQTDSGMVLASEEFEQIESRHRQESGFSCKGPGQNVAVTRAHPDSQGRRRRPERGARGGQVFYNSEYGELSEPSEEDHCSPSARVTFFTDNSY

Compound	IC50 (VEGFR-3 [1])	inhibition at 30 mg/kg (VEGFR-3 [2])
CCn1c(N)c(-c2ncc[nH]2)c(=O)c2ccc(C#CC(C)O)nc21 (racemic) [Compound 22, 2-Amino-1-ethyl-7-(3-hydroxybut-1-yn-1-yl)-3-(1H-imidazol-2-yl)-1,8-naphthyridin-4(1H)-one]	38 nM	26%
CCn1c(N)c(-c2ncc[nH]2)c(=O)c2ccc(C#C[C@@](C)(O)COC)nc21 [Compound 1, 2-Amino-1-ethyl-7-((3R)-3-hydroxy-4-methoxy-3-methyl-but-1-ynyl)-3-(1H-imidazol-2-yl)-1H-[1,8]naphthyridin-4-one]	25 nM	83%
